Results taken from the NIST ThermoML archive (doi:10.1016/j.jct.2003.09.011).
± gives the expanded uncertainty stated by the source.

Experiment: activity coefficient (dimensionless); of the first substance listed, at infinite dilution; xn = mol fraction of the nth substance listed
Conditions: Liquid, Chromatography, x1 = 0

SMILES	activity coefficient (278.15 K)	activity coefficient (298.15 K)
C#CCCCCC [1-heptyne] + O=Cc1ccco1	20 ± 1.7	17.9 ± 1.5
C#CCCCC [1-hexyne] + O=Cc1ccco1	6.27 ± 0.54	5.09 ± 0.44
c1ccccc1 [benzene] + O=Cc1ccco1	2.55 ± 0.22	2.45 ± 0.21
C1CCCCCC1 [cycloheptane] + O=Cc1ccco1	18.6 ± 1.6	15.5 ± 1.3
C1CCCCC1 [cyclohexane] + O=Cc1ccco1	16.8 ± 1.5	13.6 ± 1.2
C1CCCC1 [cyclopentane] + O=Cc1ccco1	14.2 ± 1.2	13.3 ± 1.2
CCCCCCC [heptane] + O=Cc1ccco1	38.1 ± 3.3	33.4 ± 2.9
C=CCCCC [hex-1-ene] + O=Cc1ccco1	15.2 ± 1.3	15 ± 1.3
CCCCCC [hexane] + O=Cc1ccco1	31.9 ± 2.8	27.8 ± 2.4
CCCCC [pentane] + O=Cc1ccco1	24.3 ± 2.1	21.6 ± 1.9
